Data taken from patent US8952024B2, “Herbicidal pyrimidone derivatives” (E I du Pont de Nemours and Company, priority 2009, dated 2015).

Columns and labels:
Assay in all cases: Test A pre-/postemergence plant response
Format in all cases: in vivo
[1] = tested on: pigweed (Amaranthus retroflexus)
Text: (§1) Seeds of barnyardgrass (Echinochloa crus-galli), large crabgrass (Digitaria sanguinalis), giant foxtail (Setaria faberii), morningglory (Ipomoea spp.), pigweed (Amaranthus retroflexus), velvetleaf (Abutilon theophrasti), wheat (Triticum aestivum) and corn (Zea mays) were planted into a blend of loam soil and sand and treated preemergence with a directed soil spray using test chemicals formulated in a non-phytotoxic solvent mixture which included a surfactant. At the same time these species were also treated with postemergence applications of test compounds formulated in the same manner.
(§2) Plants ranged in height from two to ten cm and were in the one- to two-leaf stage for the postemergence treatment. Treated plants and untreated controls were maintained in a greenhouse for approximately ten days, after which time all treated plants were compared to untreated controls and visually evaluated for injury. Plant response ratings, summarized in Table A, are based on a 0 to 100 scale where 0 is no effect and 100 is complete control. A dash (-) response means no test result.

[2] = tested on: barnyardgrass (Echinochloa crus-galli)
Text: as §1, §2

[3] = tested on: wheat (Triticum aestivum); conditions: for Wheat plant response rating: visual injury, 0 to 100 scale (0 no effect, 100 complete control)
Text: as §1, §2

corn (Zea mays) = tested on: corn (Zea mays)
Text: as §1, §2

[4] = tested on: morningglory (Ipomoea spp.)
Text: as §1, §2

[5] = tested on: giant foxtail (Setaria faberii)
Text: as §1, §2

[6] = tested on: velvetleaf (Abutilon theophrasti); conditions: for Velvetleaf plant response rating: visual injury, 0 to 100 scale (0 no effect, 100 complete control)
Text: as §1, §2

[7] = tested on: large crabgrass (Digitaria sanguinalis)
Text: as §1, §2

[8] = Postemergence, 125 g ai/ha, 0 to 100 scale where 0 is no effect and 100 is complete control
[9] = Postemergence, 500 g ai/ha, visual injury, 0 to 100 scale (0 no effect, 100 complete control), approx. ten days
[10] = Preemergence, 125 g ai/ha, 0 to 100 scale, 0 = no effect, 100 = complete control
[11] = Preemergence, 500 g ai/ha, 0 to 100 scale, 0 = no effect, 100 = complete control
[12] = Postemergence, 500 g ai/ha, approx. ten days
[13] = Postemergence, 500 g ai/ha, 0 to 100 scale, 0 = no effect, 100 = complete control, approx. ten days
[14] = Preemergence, 500 g ai/ha, visual injury, 0 to 100 scale (0 no effect, 100 complete control), approx. ten days

SMILES	Plant response rating, Pigweed [1, 8]	Pigweed plant response rating [1, 9]	Plant response rating, Pigweed [1, 10]	Plant response rating, Pigweed [1, 11]	Plant response rating, Barnyardgrass [2, 8]	Barnyardgrass plant response rating [2, 9]	Plant response rating, Barnyardgrass [2, 10]	Plant response rating, Wheat [3, 8]	Plant response rating, Wheat [3, 10]	Plant response rating, Wheat [3, 11]	Plant response rating, Corn (corn (Zea mays); [8])	Plant response rating, Corn (corn (Zea mays); [10])	Plant response rating, Morningglory [4, 8]	Plant response rating, Foxtail, Giant [5, 8]	Plant response rating, Foxtail, Giant [5, 10]	Plant response rating, Velvetleaf [6, 8]	Plant response rating, Velvetleaf [6, 10]	Plant response rating, Velvetleaf [6, 11]	Plant response rating, Crabgrass, Large [7, 8]	Plant response rating, Crabgrass, Large [7, 10]	also measured
O=C1CCCC(O)=C1C(=O)c1cnc(-c2cc(F)c(F)c(F)c2)n(C2CCCCC2)c1=O [Compound 205]	90	100	10	90	90	100	0	0	0	0	0	0	100	40	10	100	10	80	60	20	Plant response rating, Barnyardgrass [2, 11]: 10; Wheat plant response rating [3, 12]: 10; Corn plant response rating (corn (Zea mays); [9]): 20; Plant response rating, Corn (corn (Zea mays); [11]): 0; Morningglory plant response rating [4, 9]: 100; Plant response rating, Morningglory [4, 10]: 0; Plant response rating, Morningglory [4, 11]: 60; Foxtail, Giant plant response rating [5, 9]: 90; Plant response rating, Foxtail, Giant [5, 11]: 80; Velvetleaf plant response rating [6, 12]: 100; Crabgrass, Large plant response rating [7, 9]: 90; Plant response rating, Crabgrass, Large [7, 11]: 90
CCCn1c(-c2ccc3ccccc3c2)ncc(C(=O)C2=C(O)CCCC2=O)c1=O [Compound 150]	30		0		40		0	0	0	0	0	0	100	40	0	50	0	0	20	0	Plant response rating, Pigweed [1, 13]: 60; Plant response rating, Pigweed [1, 14]: 0; Plant response rating, Barnyardgrass [2, 13]: 80; Plant response rating, Barnyardgrass [2, 14]: 0; Plant response rating, Wheat [3, 13]: 20; Plant response rating, Corn (corn (Zea mays); [13]): 0; Plant response rating, Corn (corn (Zea mays); [14]): 0; Plant response rating, Morningglory [4, 13]: 100; Plant response rating, Morningglory [4, 10]: 0; Plant response rating, Morningglory [4, 14]: 0; Plant response rating, Foxtail, Giant [5, 13]: 70; Plant response rating, Foxtail, Giant [5, 14]: 0; Plant response rating, Velvetleaf [6, 13]: 90; Plant response rating, Crabgrass, Large [7, 13]: 50; Plant response rating, Crabgrass, Large [7, 14]: 10
O=C1CCCC(O)=C1C(=O)c1cnc(-c2ccccc2)n(C2CCCCCCCCCCC2)c1=O [Compound 165]	80	100	0	0	0	80	0	0	0	0	0	0	50	20	0	100	0	0	20	0	Plant response rating, Barnyardgrass [2, 11]: 0; Wheat plant response rating [3, 12]: 0; Corn plant response rating (corn (Zea mays); [9]): 30; Plant response rating, Corn (corn (Zea mays); [11]): 0; Morningglory plant response rating [4, 9]: 100; Plant response rating, Morningglory [4, 11]: 0; Foxtail, Giant plant response rating [5, 9]: 30; Plant response rating, Foxtail, Giant [5, 11]: 0; Velvetleaf plant response rating [6, 12]: 100; Crabgrass, Large plant response rating [7, 9]: 50; Plant response rating, Crabgrass, Large [7, 11]: 0
